Test results as given in patent US6399828B1, “Preparation of amphetamines from phenylpropanolamines” (Boehringer Ingelheim Chemicals, Inc., priority 2001, dated 2002).

Key:
[1] = Stability of O-acetylnorephedrine hydrochloride stirred with water (rearrangement to N-acetylnorephedrine), HPLC analyses; assay type: physicochemical
Experimental: Ammonium formate appears to catalyze the rearrangement of O-acetylnorephedrine hydrochloride to N-acetylnorephedrine. Three samples of O-acetylnorephedrine hydrochloride (Experiment Z recrystallized) were stirred with water for six hours respectively at room temperature, at 60° C., and at 60° C. with ammonium formate added. Samples were taken at intervals for HPLC analyses. […] At 60° C., the percentage of O-acetylnorephedrine hydrochloride decreased from 99.18 to 97.79 with the percentage of N-acetylnorephedrine increasing from 0.21% to 1.1% over a 6 hour period. […] The catalytic hydrogenation route therefore appears to be preferable to catalytic transfer hydrogenation in view of the induction period, gas evolution, and rearrangement potential.

[2] = Solubility of O-acetylnorephedrine hydrochloride in water (Experiment X)

CC(=O)OC(c1ccccc1)C(C)N.Cl (stereo not shown) [O-acetylnorephedrine hydrochloride, 2-Amino-1-acetoxy1-phenylpropane Hydrochloride]
percentage of O-acetylnorephedrine hydrochloride ([1]; water with ammonium formate, 60° C., by 6 hours): 77.20% | percentage of O-acetylnorephedrine hydrochloride ([1]; water with ammonium formate, 60° C., within 30 minutes): 91.23% | percentage of O-acetylnorephedrine hydrochloride ([1]; water, 60° C., after 6 hours): 97.79% | percentage of O-acetylnorephedrine hydrochloride ([1]; water, 60° C., start): 99.18% | percentage of O-acetylnorephedrine hydrochloride ([1]; water, room temperature, after 6 hours): 99.12% | percentage of O-acetylnorephedrine hydrochloride ([1]; water, room temperature, start): 99.30% | solubility in water [2]: 5.5 mL/g
